Measurements reported in patent US20220227769A1, “CRYSTALLINE FORM OF TELMAPITANT OR (5R,8S)-8-[[(1R)-1-[3,5-BIS(TRIFLUOROMETHYL)PHENYL]ETHOXY]METHYL]-8-PHENYL-1,3,7-TRIAZASPIRO[4.5]DECANE-2,4-DIONE” (Intervet Inc., priority 2019, published 2022).

Assays:
[1] = Competitive slurry experiments of polymorphic forms; assay type: physicochemical; settings: competitive slurry of Form 1 with Form 2 and Form 3 in acetonitrile at room temperature (20-25° C.) and 75° C.
Excerpt: Three anhydrous polymorphic forms of telmapitant or (5R,8S)-8-[[(1R)-1-[3,5-bis(trifluoromethyl)phenyl]ethoxy]methyl]-8-phenyl-1,3,7-triazaspiro[4.5]decane-2,4-dione (MK-7035) have been identified during polymorph screening.

[2] = test system: emesis induced by apomorphine IV and syrup of ipecac orally; settings: dogs; centrally acting emetogens (apomorphine IV) and peripherally acting emetogens (syrup of ipecac orally); cited from earlier work

Compound	relative thermodynamic stability of polymorphic forms [1]	efficacy against emetogens [2]
C[C@@H](OC[C@@]1(c2ccccc2)CC[C@]2(CN1)NC(=O)NC2=O)c1cc(C(F)(F)F)cc(C(F)(F)F)c1 [Form 1, (5R,8S)-8-[[(1R)-1-[3,5-bis(trifluoromethyl)phenyl]ethoxy]methyl]-8-phenyl-1,3,7-triazaspiro[4.5]decane-2,4-dione]	thermodynamically more stable than Form 2 and Form 3	
COc1ccc(C(C)(C)C)cc1CN[C@H]1C2CCN(CC2)[C@H]1C(c1ccccc1)c1ccccc1 [maropitant]		effective
